Measurements published in PubChem BioAssay (NCI).
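1) Cells in 96-well plates. 2) Compound, 48 h, 5 concentrations. 3) Linear interpolation between surrounding doses. 4) Unreached endpoint = highest concentration. Abbreviation: GI50, concentration required for 50% inhibition of growth. TGI: concentration producing complete growth inhibition.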

Key:
Test in all cases: NCI anticancer screen, dose series, 48 h
NCI-H460 lung = test system: NCI-H460 lung
NCI-H522 lung = test system: NCI-H522 lung
NCI/ADR-RES ovarian = test system: NCI/ADR-RES ovarian
OVCAR-4 ovarian = test system: OVCAR-4 ovarian
OVCAR-5 ovarian = test system: OVCAR-5 ovarian
OVCAR-8 ovarian = test system: OVCAR-8 ovarian
PC-3 prostate = test system: PC-3 prostate
RPMI-8226 leukemia = test system: RPMI-8226 leukemia
RXF 393 renal = test system: RXF 393 renal
SF-268 CNS = test system: SF-268 CNS
SF-295 CNS = test system: SF-295 CNS
SF-539 CNS = test system: SF-539 CNS
SK-MEL-28 melanoma = test system: SK-MEL-28 melanoma
SK-MEL-5 melanoma = test system: SK-MEL-5 melanoma
SK-OV-3 ovarian = test system: SK-OV-3 ovarian
SN12C renal = test system: SN12C renal
SNB-19 CNS = test system: SNB-19 CNS
SNB-75 CNS = test system: SNB-75 CNS
SR leukemia = test system: SR leukemia
SW-620 colon = test system: SW-620 colon
T-47D breast = test system: T-47D breast
TK-10 renal = test system: TK-10 renal
U251 CNS = test system: U251 CNS
UACC-257 melanoma = test system: UACC-257 melanoma
UACC-62 melanoma = test system: UACC-62 melanoma
UO-31 renal = test system: UO-31 renal

## COc1ccc(Cn2cc3c(c2-c2cc(OC)c(OC)c(OC)c2)CCCc2cnoc2-3)cc1
NCI-H460 lung
  GI50: 0.5 µM
  TGI: > 100 µM
NCI-H522 lung
  GI50: 0.975 µM
  TGI: 6.9 µM
NCI/ADR-RES ovarian
  GI50: 0.544 µM
  TGI: > 100 µM
OVCAR-4 ovarian
  GI50: 4.97 µM
  TGI: > 100 µM
OVCAR-5 ovarian
  GI50: 3.72 µM
  TGI: > 100 µM
OVCAR-8 ovarian
  GI50: 4.3 µM
  TGI: > 100 µM
PC-3 prostate
  GI50: 0.849 µM
  TGI: > 100 µM
RPMI-8226 leukemia
  GI50: 1.56 µM
  TGI: > 100 µM
RXF 393 renal
  GI50: 0.658 µM
  TGI: 5.04 µM
SF-268 CNS
  GI50: 4.72 µM
  TGI: > 100 µM
SF-295 CNS
  GI50: 0.511 µM
  TGI: > 100 µM
SF-539 CNS
  GI50: 0.7 µM
  TGI: 5.17 µM
SK-MEL-28 melanoma
  GI50: > 100 µM
  TGI: > 100 µM
SK-MEL-5 melanoma
  GI50: 2 µM
  TGI: > 100 µM
SK-OV-3 ovarian
  GI50: 4.18 µM
  TGI: > 100 µM
SN12C renal
  GI50: 4.6 µM
  TGI: > 100 µM
SNB-19 CNS
  GI50: 1.53 µM
  TGI: > 100 µM
SNB-75 CNS
  GI50: 0.869 µM
  TGI: 4.75 µM
SR leukemia
  GI50: 0.359 µM
  TGI: > 100 µM
SW-620 colon
  GI50: 0.474 µM
  TGI: > 100 µM
T-47D breast
  GI50: 1.85 µM
  TGI: > 100 µM
TK-10 renal
  GI50: > 100 µM
  TGI: > 100 µM
U251 CNS
  GI50: 4.47 µM
  TGI: > 100 µM
UACC-257 melanoma
  GI50: > 100 µM
  TGI: > 100 µM
UACC-62 melanoma
  GI50: 0.906 µM
  TGI: > 100 µM
UO-31 renal
  GI50: 0.924 µM
  TGI: > 100 µM
